The target of assay [1] is T1, HMGB1 (Homo sapiens, UniProt P09429).
T1 construct: endogenous in cells; host or cells: pulmonary artery smooth muscle cells (PASMC), male and female
T1 sequence (P09429 1-215): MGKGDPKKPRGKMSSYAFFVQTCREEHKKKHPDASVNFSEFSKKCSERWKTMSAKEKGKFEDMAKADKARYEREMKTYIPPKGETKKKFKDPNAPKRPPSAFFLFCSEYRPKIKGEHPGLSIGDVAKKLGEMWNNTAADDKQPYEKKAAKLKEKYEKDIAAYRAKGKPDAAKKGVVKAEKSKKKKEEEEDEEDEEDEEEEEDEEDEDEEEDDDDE
In words: HMGB1 cytosol/nuclear distribution in fractionated PASMC. In kind it is cell-based. To be noted: for cytosol and nuclear levels of HMGB1: PASMC cytosolic and nuclear fraction; for exit of nuclear HMGB1 to the cytosol: especially evident in male cells. From the text: FIGS. 1A, 1B, 1C, and 1D show only intracellular Cysteine^106 lowers HMGB1 levels in both fractions. FIGS. 1A and 1B show peptides that bind to HMGB1^Cys106 but not HMGB1^Cys23/45 reduce HMGB1 levels in PASMC cytosolic and nuclear fraction.
FIGS. 2A and 2B show […] increases HMGB1 expulsion from the nucleus to cytosol. A proteasome inhibitor (e.g., MG 132) restores cytosolic (FIG. 2A) and nuclear (FIG. 2B) HMGB1 levels reduced by αHMGB1^Cys106 peptide.
(§1) To study the activities of HMGB1 cysteines, peptides were designed that bind to the specific regions of HMGB1 and, by shielding either Cys106 or Cys23/45, prevent their interaction with the downstream targets. The peptides with cell-penetrating TAT sequences were used to study the intracellular role of HMGB1 cysteines, while peptides without TAT served as extracellular controls. Fractionating pulmonary artery smooth muscle cells (PASMC) allowed the evaluation of HMGB1 cytosol/nuclear distribution. […] The protective role of peptide in vivo was estimated using the rat Sugen/Hypoxia PH model. Given the discovered sex difference in the HMGB1-mediated signaling, the in vitro and in vivo studies were replicated in male and female animals and cells.
(§2) To study the activities of HMGB1 cysteines, peptides were designed with cell-penetrating TAT sequences that bind to either Cys106 or Cys23/45 and prevent the interaction of these cysteines with the downstream targets. The intracellular activities of peptides were evaluated by measuring HMGB1 cytosol/nuclear distribution and the ability to regulate the recombinant HMGB1 binding to double-stranded DNA. The protective role of the Cys106-shielding peptide (αHMGB1^Cys106; SEQ ID NO: 4) was estimated using the rat Sugen/Hypoxia (Su/Hx) PAH model and human endothelial pulmonary artery cells (hPAEC).

The test system of assay [2] is lungs and heart of Su/Hx rats. Put plainly: lung and heart cell damage readouts in Su/Hx rats (apoptosis, senescence, necroptosis, genotoxic stress, fibrosis, hypertrophy). In kind it is in vivo, rat. The settings on record: for genotoxic stress in vivo: Su/Hx rats, in b88 males; for senescence: female and early-stage male PAH.
The test system of assay [3] is p53. In words: p53 levels in nuclei of PASMC. In kind it is cell-based.
From the text: as §1

For assay [4], the system named is rat Sugen/Hypoxia (Su/Hx) PAH model. In words: rat Sugen/Hypoxia (Su/Hx) PAH model, hemodynamics and right ventricle. To be noted: for right ventricle (RV) systolic pressure / protection of the RV: females, 2.5 mg/kg/day i.p.; for right ventricle (RV) systolic pressure: early stage of PH; for protection of the RV: later stage of PH; for hemodynamic parameters / protection in males: male PH rats. In kind it is in vivo.
From the text: as §1, with “cells. […]” for “cells.”
as §2, with “(hPAEC). […]” for “(hPAEC).”

The subject of assay [5] is apoptosis. Put plainly: cell apoptosis induced by the p53 activator. In kind it is cell-based.
Assay [6] has as its system TLR4. In words: cytosolic and nuclear TLR4 protein levels. In kind it is cell-based.
From the text: as §1

Assay [7] concerns the target T2, HMGB1 (Rattus norvegicus, UniProt P63159).
T2 construct: from tissue; host or cells: plasma of Su/Hx rats
T2 sequence (P63159 1-215): T1 sequence (P09429 1-215) with E189D, D202E
Put plainly: plasma HMGB1 levels in Su/Hx rats. In kind it is in vivo. The source says:
FIGS. 11A and 11B show the sex differences in plasma HMGB1 levels in response to αHMGB1^Cys106 peptides (e.g., SEQ. ID NO: 4) in early PH stages. Note: SU2 is related to the 2 weeks after exposure to SU5416 (PAH inducer), and is indicative of a relatively early disease stage; SU5 means 5 weeks after exposure to SU5416, and is indicative of an advanced stage of the disease.
The cytosol and nuclear levels of HMGB1 were affected by a cell-penetrating peptide designed to shield Cys106 (TAT-α-HMGB1^Cys106, or α-Cys106) and not any other peptide.

Assay [8] has as its system p53. Put plainly: p53 expression in vivo in Su/Hx rats. More on the design: species or system rat. To be noted: either sex.
Assay [9] deals with human pulmonary artery endothelial cells (HPAEC). Put plainly: genotoxic stress induced in HPAEC by Doxorubicin. In kind it is cell-based. To be noted: Doxorubicin 1 μg/ml for 24 h. Here is the method:
as §2

Assay [10] deals with T3, recombinant fully reduced HMGB1 (Homo sapiens, UniProt P09429).
T3 sequence (P09429 1-215): T1 sequence (P09429 1-215)
In words: HMGB1 binding to calf thymus double-stranded DNA cellulose with or without shielding peptide. In kind it is biochemical. The method, then:
The left two gel blots show HMGB1 elution after incubation with DNA cellulose.
as §1
To study the activities of HMGB1 cysteines, peptides were designed with cell-penetrating TAT sequences that bind to either Cys106 or Cys23/45 and prevent the interaction of these cysteines with the downstream targets. The intracellular activities of peptides were evaluated by measuring HMGB1 cytosol/nuclear distribution and the ability to regulate the recombinant HMGB1 binding to double-stranded DNA. […]

The subject of assay [11] is human pulmonary artery endothelial cells (HPAEC). In words: apoptosis in HPAEC stimulated by RITA. It is filed as cell-based. The method, then: as §2
Where [12] appears, read: listed as α-Cys106, 2.5 mg/kg/day.

Changes are numbered by the printed parent chain. “Also recorded” adds a separate entry of the source. Like-named read-outs stand apart in the source and are kept apart here. Peptide text beside a SMILES is read from it. * marks the point of attachment. Cbz = O=C(OCc1ccccc1)*

On to “SIGDVAKKLGEMWNNGRKKRRQRRRPQ [HMGB1^Cys23/45]”, for which, in [1], the “cytosol and nuclear levels of HMGB1” value is listed as “not”.
“FFLFCSEYRPKIKGRKKRRQRRRPQ [αHMGB1^Cys106 peptide, cell-penetrating TAT peptide designed to shield HMGB1 Cys106]”: the “genotoxic stress in vivo” value is “protects against genotoxic stress” in assay [2] and “inhibited genotoxic stress” in [2] (listed as αHMGB1^Cys106). Also, the “apoptosis in the lungs” value in [2] (female Su/Hx rats) was “decreases apoptosis; also recorded: mediates protection against apoptosis”; in [2] (female Su/Hx rats, listed as α-Cys106), “anti-apoptotic effect”; in [2] (female Su/Hx rats, listed as αHMGB1^Cys106), “reduced pulmonary apoptosis and senescence”; in assay [2] (male Su/Hx rats), “does not manifest”. Moreover, the senescence result in [2] is “protects against senescence”; in assay [2] (listed as αHMGB1^Cys106) it was “reduced pulmonary apoptosis and senescence”. Moreover, the cardiac fibrosis result in assay [2] (heart of male Su/Hx rats) is recorded as “anti-fibrotic activity”. The necroptosis entry in assay [2] (males at early PAH) was “protects against necroptosis”. In addition, the cardiomyocyte hypertrophy result in assay [2] (rat, in vivo) is reported as “protective effect”. Also, the “p53 levels / expression” value in assay [3] is listed as “reduces p53 levels”; in assay [3] (listed as α-Cys106), “negatively affected”. For the same compound, the “right ventricle systolic pressure” value in assay [4] (female Su/Hx rats, preventive study, 2.5 mg/kg/day i.p. for 2 wks, Su/Hx alone 73.2±3.4, p=0.0002) is listed as 50.4±3.0 mmHg; in assay [4] (female Su/Hx rats, treatment study, 2.5 mg/kg/day i.p. for 2 wks, Su/Hx alone 110.5±6.3, p=0.0005), 70.0±2.8 mmHg; in [4] (male Su/Hx rats, treatment protocol, 2.5 mg/kg/day i.p. for 2 wks, Su/Hx alone 101.7±2.7, p=0.0007, N=5-8), 73.4±6.4 mmHg. Moreover, the “right ventricle (RV) systolic pressure” value in [4] (2.5 mg/kg/day) is on record as “decreases right ventricle (RV) systolic pressure”; in assay [4] (setting [12]), “decreased right ventricle (RV) systolic pressure”. The “protection of the RV” value is “protects the RV” in assay [4] (2.5 mg/kg/day) and “protected the RV” in assay [4] (setting [12]). Moreover, the “hemodynamic parameters / protection in males” value in [4] was “protected only by treatment protocol”; in [4] (listed as α-Cys106), “no changes”. In addition, the “PAH severity in Su/Hx model” value in assay [4] (rat Su/Hx, 2.5 mg/kg/day i.p. for 2 wks, 2.5 mg/kg/day) was “protective and treatment effects; also recorded: significantly attenuated PAH”. For the same compound, the cell apoptosis entry in assay [5] is recorded as “attenuates apoptosis”; in [5] (listed as α-Cys106), “reduced cell apoptosis”. Moreover, the entries for the “degradation of HMGB1” value in assay [1] and in [1] (listed as α-Cys106) were “lysosomal degradation” and “induced its proteasomal degradation”, respectively. Besides, the “cytosol and nuclear levels of HMGB1” value in assay [1] is on record as “reduced; also recorded: affected”; in assay [1] (listed as HMGB1^Cys106 peptide), “reduces HMGB1 levels”; in assay [1] (listed as TAT-α-HMGB1^Cys106), “affected”. Further, the “exit of nuclear HMGB1 to the cytosol” value in assay [1] is given as “enhancing the nuclear HMGB1 exit to the cytosol”; in [1] (listed as α-Cys106), “enhanced the exit of nuclear HMGB1 to the cytosol”. Moreover, the “HMGB1 level in PASMC” value in assay [1] (relative to untreated 1±0.097, N=6) was 0.428±0.045. Also, the “HMGB1 level in PASMC with proteasome inhibitor” value in assay [1] (α-Cys106 plus proteasome inhibitor MG132, 10 μM, 1 hr, untreated 1±0.097, N=6) is listed as 0.885±0.049. The “TLR4 protein levels / expression” value is “reduces cytosolic and nuclear TLR4 protein levels” in assay [6]; “negatively affected” in assay [6] (listed as α-Cys106). Moreover, the “plasma HMGB1 levels” value in assay [7] (females, 2.5 mg/kg/day i.p.) is “reduced plasma HMGB1 levels”. For the same compound, the “plasma HMGB1” value in [7] (male PH rats) is “no changes”. Besides, the “expression of p53 in vivo” value is “reduces expression of p53” in assay [8] and “negative regulation of p53 expression” in assay [8] (listed as αHMGB1^Cys106). Also, the “genotoxic stress in HPAEC” value in assay [9] is on record as “protective effect”. In addition, in [10] (FIG. 3), the “HMGB1 binding to DNA (HMGB1 elution after incubation with DNA cellulose)” value is “prevents HMGB1 binding to DNA”. In addition, the “decrease in HMGB1 binding to DNA” value in [10] (recombinant HMGB1, double-stranded DNA cellulose) is approximately 5.9 fold. In [11], the “apoptosis in HPAEC” value was “anti-apoptotic effect”.
`CC(C)C[C@@H](C=O)NC(=O)[C@H](CC(C)C)NC(=O)[C@H](CC(C)C)NC(=O)OCc1ccccc1` [MG 132, reference compound] (Cbz-Leu-Leu-Leu-aldehyde): the “cytosolic and nuclear HMGB1 levels reduced by αHMGB1^Cys106 peptide, effect of proteasome inhibitor” value in assay [1] (FIGS. 2A, 2B) is “restores”.
